Consider 35 compounds from patent publication US20250270172A1, “Pyrimidine Derivatives As Modulators of the 5-HT2A Serotonin Receptor Useful For The Treatment of Disorders Related Thereto” (Arena Pharmaceuticals, Inc., priority 2020, published 2025).

As usually defined, the Ki is the dissociation constant of the complex between target and ligand, obtained from inhibition or displacement.

Molecules are shown by their SMILES.

In this assay the target is 5-HT2A (Homo sapiens (Human), UniProt P28223). Kind of assay: Radioligand binding assay, [^3H]5-HT competition, 5-HT2A. The note with it: [^3H]5-HT radioligand, membranes of HEK293 cells expressing recombinant 5-HT2A; Ki from IC50 by Cheng-Prusoff; read-out: 5-HT2A serotonin binding Ki value.
Sequence of 5-HT2A (P28223 whole entry): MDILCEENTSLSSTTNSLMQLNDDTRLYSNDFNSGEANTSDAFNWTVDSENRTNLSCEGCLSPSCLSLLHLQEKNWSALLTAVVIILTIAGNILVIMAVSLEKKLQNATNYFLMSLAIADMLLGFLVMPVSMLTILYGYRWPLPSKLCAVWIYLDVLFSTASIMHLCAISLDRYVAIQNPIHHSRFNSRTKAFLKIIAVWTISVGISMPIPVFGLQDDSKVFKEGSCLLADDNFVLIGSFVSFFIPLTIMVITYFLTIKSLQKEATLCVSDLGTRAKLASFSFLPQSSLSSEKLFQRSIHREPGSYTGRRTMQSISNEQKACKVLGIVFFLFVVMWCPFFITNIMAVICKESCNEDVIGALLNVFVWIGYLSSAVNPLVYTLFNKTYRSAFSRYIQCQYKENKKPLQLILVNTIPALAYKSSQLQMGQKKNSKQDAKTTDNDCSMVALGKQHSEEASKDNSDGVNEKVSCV

For `Cc1ncnc(C)c1-c1cc(NC(=O)Cc2cccn2C)ccc1OCCN1CCCC1` [Compound 249, N-(3-(4,6-dimethylpyrimidin-5-yl)-4-(2-(pyrrolidin-1-yl)ethoxy)phenyl)-2-(1-methyl-1H-pyrrol-2-yl)acetamide], the inhibitory constant (Ki) was 78.3 nM. On to `Cc1ncnc(C)c1-c1cc(NC(=O)Cc2ccccc2)ccc1OCCN1CCCC1` [Compound 251, N-(3-(4,6-dimethylpyrimidin-5-yl)-4-(2-(pyrrolidin-1-yl)ethoxy)phenyl)-2-phenylacetamide], for which the inhibitory constant (Ki) is 2.05 nM. The value for `Cc1ncnc(C)c1-c1cc(NC(=O)C(C)c2ccccc2)ccc1OCCN1CCCC1` (centres unmarked) [Compound 252, N-(3-(4,6-dimethylpyrimidin-5-yl)-4-(2-(pyrrolidin-1-yl)ethoxy)phenyl)-2-phenylpropanamide] was 9.53 nM; that for `Cc1ncnc(C)c1-c1cc(NC(=O)C2(c3ccccc3)CC2)ccc1OCCN1CCCC1` [Compound 253, N-(3-(4,6-dimethylpyrimidin-5-yl)-4-(2-(pyrrolidin-1-yl)ethoxy)phenyl)-1-phenylcyclopropane-1-carboxamide] was 6.34 nM; that for `Cc1ncnc(C)c1-c1cc(NC(=O)Cc2ccc(F)cc2)ccc1OCCN1CCCC1` [Compound 254, N-(3-(4,6-dimethylpyrimidin-5-yl)-4-(2-(pyrrolidin-1-yl)ethoxy)phenyl)-2-(4-fluorophenyl)acetamide] was 1.3 nM. For the compound `Cc1ncnc(C)c1-c1cc(NC(=O)CCc2ccccc2)ccc1OCCN1CCCC1` [Compound 255, N-(3-(4,6-dimethylpyrimidin-5-yl)-4-(2-(pyrrolidin-1-yl)ethoxy)phenyl)-3-phenylpropanamide], the Ki was determined as 1.72 nM. With `Cc1ncnc(C)c1-c1cc(NC(=O)CCc2cocn2)ccc1OCCN1CCCC1` [Compound 258, N-[3-(4,6-dimethylpyrimidin-5-yl)-4-(2-pyrrolidin-1-ylethoxy)phenyl]-3-oxazol-4-yl-propanamide], the Ki was 10.8 nM. With `Cc1nc(CCC(=O)Nc2ccc(OCCN3CCCC3)c(-c3c(C)ncnc3C)c2)co1` [Compound 259, N-[3-(4,6-dimethylpyrimidin-5-yl)-4-(2-pyrrolidin-1-ylethoxy)phenyl]-3-(2-methyloxazol-4-yl)propanamide], the Ki was 19.6 nM. As for `Cc1ncnc(C)c1-c1cc(NC(=O)Cc2cnco2)ccc1OCCN1CCCC1` [Compound 260, N-[3-(4,6-dimethylpyrimidin-5-yl)-4-(2-pyrrolidin-1-ylethoxy)phenyl]-2-oxazol-5-yl-acetamide], the Ki worked out at 63.3 nM. Regarding `Cc1nc(CC(=O)Nc2ccc(OCCN3CCCC3)c(-c3c(C)ncnc3C)c2)no1` [Compound 261, N-(3-(4,6-dimethylpyrimidin-5-yl)-4-(2-(pyrrolidin-1-yl)ethoxy)phenyl)-2-(5-methyl-1,2,4-oxadiazol-3-yl)acetamide], the Ki turned out to be 91.7 nM. For the compound `Cc1ncnc(C)c1-c1cc(NC(=O)Cc2ccon2)ccc1OCCN1CCCC1` [Compound 262, N-(3-(4,6-dimethylpyrimidin-5-yl)-4-(2-(pyrrolidin-1-yl)ethoxy)phenyl)-2-(isoxazol-3-yl)acetamide], the Ki worked out at 35.7 nM. Consider `Cc1cc(CC(=O)Nc2ccc(OCCN3CCCC3)c(-c3c(C)ncnc3C)c2)on1` [Compound 264, N-(3-(4,6-dimethylpyrimidin-5-yl)-4-(2-(pyrrolidin-1-yl)ethoxy)phenyl)-2-(3-methylisoxazol-5-yl)acetamide], for which the Ki worked out at 9.18 nM.

For `Cc1noc(CC(=O)Nc2ccc(OCCN3CCCC3)c(-c3c(C)ncnc3C)c2)n1` [Compound 265, N-(3-(4,6-dimethylpyrimidin-5-yl)-4-(2-(pyrrolidin-1-yl)ethoxy)phenyl)-2-(3-methyl-1,2,4-oxadiazol-5-yl)acetamide], the inhibitory constant (Ki) came out at 18.2 nM. In the case of `Cc1ncnc(C)c1-c1cc(NC(=O)Cc2cc(C)n(C)n2)ccc1OCCN1CCCC1` [Compound 267, 2-(1,5-dimethyl-1H-pyrazol-3-yl)-N-(3-(4,6-dimethylpyrimidin-5-yl)-4-(2-(pyrrolidin-1-yl)ethoxy)phenyl)acetamide], the Ki came to 692 nM. On to `Cc1ncnc(C)c1-c1cc(NC(=O)Cc2ccn(C)n2)ccc1OCCN1CCCC1` [Compound 269, N-[3-(4,6-dimethylpyrimidin-5-yl)-4-(2-pyrrolidin-1-ylethoxy)phenyl]-2-(1-methylpyrazol-3-yl)acetamide], for which the Ki stood at 559 nM. The value for `Cc1ncnc(C)c1-c1cc(NC(=O)CCc2ccn(C)n2)ccc1OCCN1CCCC1` [Compound 270, N-[3-(4,6-dimethylpyrimidin-5-yl)-4-(2-pyrrolidin-1-ylethoxy)phenyl]-3-(1-methylpyrazol-3-yl)propanamide] was 51.6 nM. As for `COc1cccc(CC(=O)Nc2ccc(OCCN3CCCC3)c(-c3c(C)ncnc3C)c2)c1` [Compound 274, N-(3-(4,6-dimethylpyrimidin-5-yl)-4-(2-(pyrrolidin-1-yl)ethoxy)phenyl)-2-(3-methoxyphenyl)acetamide], the figure is 3.92 nM; as for `Cc1ncnc(C)c1-c1cc(NC(=O)Cc2cncc(F)c2)ccc1OCCN1CCCC1` [Compound 277, N-(3-(4,6-dimethylpyrimidin-5-yl)-4-(2-(pyrrolidin-1-yl)ethoxy)phenyl)-2-(5-fluoropyridin-3-yl)acetamide], 33.4 nM; as for `Cc1ncnc(C)c1-c1cc(NC(=O)Cc2ccc(F)cn2)ccc1OCCN1CCCC1` [Compound 278, N-(3-(4,6-dimethylpyrimidin-5-yl)-4-(2-(pyrrolidin-1-yl)ethoxy)phenyl)-2-(5-fluoropyridin-2-yl)acetamide], 32.6 nM. As to `Cc1ncnc(C)c1-c1cc(N(C)C(=O)C2CC2)ccc1OCCN1CCCC1` [Compound 279, N-[3-(4,6-dimethylpyrimidin-5-yl)-4-(2-pyrrolidin-1-ylethoxy)phenyl]-N-methyl-cyclopropanecarboxamide], the Ki came to 65800 nM.

`Cc1ncnc(C)c1-c1cc(N(C)C(=O)c2ccnn2C)ccc1OCCN1CCCC1` [Compound 280, N-[3-(4,6-dimethylpyrimidin-5-yl)-4-(2-pyrrolidin-1-ylethoxy)phenyl]-N,2-dimethyl-pyrazole-3-carboxamide]: the Ki was 65800 nM.

As for `Cc1ncnc(C)c1-c1cc(NC(=O)CCF)ccc1OCCN1CCCC1` [Compound 281, N-[3-(4,6-dimethylpyrimidin-5-yl)-4-(2-pyrrolidin-1-ylethoxy)phenyl]-3-fluoro-propanamide], the Ki amounted to 30.6 nM. On to `Cc1ncnc(C)c1-c1cc(NC(=O)CCCF)ccc1OCCN1CCCC1` [Compound 282, N-[3-(4,6-dimethylpyrimidin-5-yl)-4-(2-pyrrolidin-1-ylethoxy)phenyl]-4-fluoro-butanamide], for which the Ki is 8.84 nM.

As to `Cc1ncnc(C)c1-c1cc(NC(=O)C2(O)CC2)ccc1OCCN1CCCC1` [Compound 283, N-[3-(4,6-dimethylpyrimidin-5-yl)-4-(2-pyrrolidin-1-ylethoxy)phenyl]-1-hydroxy-cyclopropanecarboxamide], the inhibition constant (Ki) worked out at 24 nM. As to `COC(C)(C)C(=O)Nc1ccc(OCCN2CCCC2)c(-c2c(C)ncnc2C)c1` [Compound 284, N-[3-(4,6-dimethylpyrimidin-5-yl)-4-(2-pyrrolidin-1-ylethoxy)phenyl]-2-methoxy-2-methyl-propanamide], the inhibitory constant (Ki) was 87.5 nM.

Consider `CCOC1(C(=O)Nc2ccc(OCCN3CCCC3)c(-c3c(C)ncnc3C)c2)CC1` [Compound 285, N-[3-(4,6-dimethylpyrimidin-5-yl)-4-(2-pyrrolidin-1-ylethoxy)phenyl]-1-ethoxy-cyclopropanecarboxamide], for which the Ki came out at 33.4 nM. Take `COC1(C(=O)Nc2ccc(OCCN3CCCC3)c(-c3c(C)ncnc3C)c2)CCC1` [Compound 286, N-[3-(4,6-dimethylpyrimidin-5-yl)-4-(2-pyrrolidin-1-ylethoxy)phenyl]-1-methoxy-cyclobutanecarboxamide]: the inhibition constant (Ki) was found to be 10.1 nM. Regarding `Cc1ncnc(C)c1-c1cc(NC(=O)CN2CCCC2)ccc1OCCN1CCCC1` [Compound 287, N-[3-(4,6-dimethylpyrimidin-5-yl)-4-(2-pyrrolidin-1-ylethoxy)phenyl]-2-pyrrolidin-1-yl-acetamide], the Ki was 3250 nM. The value for `Cc1ncnc(C)c1-c1cc(NC(=O)CNC2CC2)ccc1OCCN1CCCC1` [Compound 288, 2-(Cyclopropylamino)-N-[3-(4,6-dimethylpyrimidin-5-yl)-4-(2-pyrrolidin-1-ylethoxy)phenyl]acetamide] was 81.2 nM. As for `Cc1ncnc(C)c1-c1cc(NC(=O)CNC2CCCC2)ccc1OCCN1CCCC1` [Compound 289, 2-(cyclopentylamino)-N-(3-(4,6-dimethylpyrimidin-5-yl)-4-(2-(pyrrolidin-1-yl)ethoxy)phenyl)acetamide], the figure is 123 nM; as for `Cc1cnn(C)c1C(=O)Nc1ccc(OCCN2CCCC2)c(-c2c(C)ncnc2C)c1` [Compound 292, N-(3-(4,6-dimethylpyrimidin-5-yl)-4-(2-(pyrrolidin-1-yl)ethoxy)phenyl)-1,4-dimethyl-1H-pyrazole-5-carboxamide], 17.6 nM; as for `Cc1ncnc(C)c1-c1cc(NC(=O)Cc2nccs2)ccc1OCCN1CCCC1` [Compound 294, N-(3-(4,6-dimethylpyrimidin-5-yl)-4-(2-(pyrrolidin-1-yl)ethoxy)phenyl)-2-(thiazol-2-yl)acetamide], 17.9 nM. For the compound `Cc1ncnc(C)c1-c1cc(NC(=O)c2c(F)ccn2C)ccc1OCCN1CCCC1` [Compound 295, N-[3-(4,6-dimethylpyrimidin-5-yl)-4-(2-pyrrolidin-1-ylethoxy)phenyl]-3-fluoro-1-methyl-pyrrole-2-carboxamide], the Ki was determined as 2.01 nM. Consider `Cc1ncnc(C)c1-c1cc(NC(=O)C2CC(F)(F)C2)ccc1OCCN1CCCC1` [Compound 296, N-(3-(4,6-dimethylpyrimidin-5-yl)-4-(2-(pyrrolidin-1-yl)ethoxy)phenyl)-3,3-difluorocyclobutane-1-carboxamide], for which the inhibition constant (Ki) came to 4.49 nM. Turning to `Cc1ncnc(C)c1-c1cc(NC(=O)c2cccc(F)c2)ccc1OCCN1CCCC1` [Compound 297, N-(3-(4,6-dimethylpyrimidin-5-yl)-4-(2-(pyrrolidin-1-yl)ethoxy)phenyl)-3-fluorobenzamide], the inhibition constant (Ki) came to 2.71 nM.
